# Measured values reported in publication PMC9576799, “Discovery of small molecule inhibitors that effectively disrupt IQGAP1-Cdc42 interaction in breast cancer cells” (Scientific Reports, 2022).
# Read-outs that look alike come from different tables or passages of the source.
# What was measured:
# GST-Cdc42-Q61L-His = molecular target: T1, GST-Cdc42-Q61L-His (Homo sapiens, UniProt P60953, Q61L); assay: HTRF counter-screen with double-tagged Cdc42; conditions: 100 nM GST-Cdc42-Q61L-His
# T1 construct: His (hexa-histidine in the Results); made in house; host or cells: Escherichia coli BL-21
# T1 sequence (P60953 2-191 isoform P60953-1 Q61L): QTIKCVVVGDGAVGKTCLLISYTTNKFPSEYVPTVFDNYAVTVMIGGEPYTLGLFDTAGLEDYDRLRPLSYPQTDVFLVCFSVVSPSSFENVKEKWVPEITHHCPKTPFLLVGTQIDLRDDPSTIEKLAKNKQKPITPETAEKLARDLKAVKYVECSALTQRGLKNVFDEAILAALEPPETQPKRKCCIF
# Experimental: Two different HTRF counter-screens were used to identify false positive hits. The two interacting proteins GST-IQGAP1-C and His-Cdc42-Q61L were replaced with His-tagged GST or Cdc42-Q61L containing GST at the N-terminus and His at the C-terminus (GST-Cdc42-Q61L-His).
# First, GST-Cdc42-Q61L-His was titrated in parallel with the pre-mixed His-Cdc42-Q61L and GST-IQGAP1-C to comparatively match the signal level to the signal of the primary HTRF assay. We chose 100 nM GST-Cdc42-Q61L-His protein as the final concentration for the counter-screen. The assay protocol is outlined in Supplementary Table S2 online. Briefly, 4 μL/well of […] diluted in binding buffer was dispensed to the plates, followed by pinning 23 nL/well of selected hit compounds from the primary screening and addition of 2 μL/well premixed HTRF antibodies. After 3 h, 1 μL/well of 2.8 M potassium fluoride was added to the assay and the fluorescence signal was read on the Envision instrument. For controls, we used pre-mixed proteins GST-IQGAP1-C and His-Cdc42-Q61L (primary assay’s regular conditions) as IC100, and […] at 1.5 nM final concentration as IC0.
# Supplementary Table S2: Counter-screening HTRF protocol.
# Step Parameter Value Description
# 1a Protein 4 µL 100 nM His-GST (final concentration), diluted in
# 1b Controls 4 µL Column 2: GST-IQGAP1-C protein only [1.5nM] final
# Column 3: pre-mixed proteins (regular assay
# 2 Compounds 23 nL Selected compounds were pin-transferred from DMSO
# HTRF α-His-XL (5 ng/µL, 3X working concentration) +
# 3 antibodies 2 µL α-GST-K (0.7 ng/µL 3X working concentration),
# pre-mix mixed in binding buffer
# 4 Time 3 Incubation (ambient temperature)
# 5 Reagent 1 µL 2.8 M KF (7x)
# 6 Detector HTRF Envision plate reader (excitation: 340 nm, emission: […]
# [1] = tested on: endogenous IQGAP1/Cdc42 interaction; assay: Immunoprecipitation of endogenous IQGAP1 and co-precipitated Cdc42 in HEK293 cell lysates; assay type: binding; conditions: 0.2-50 µM
# Experimental: Each compound was added to lysates from HEK293 cells at a final concentration of 50 µM and endogenous IQGAP1 was immunoprecipitated. DMSO alone was used as the negative control (100% binding).
# HEK293 cells were plated in 10-cm dishes to reach 80% confluence. The following day, the cells were washed with ice-cold phosphate-buffered saline (PBS) and lysed with 500 µl of Buffer A (50 mM Tris–HCl, pH 7.4, 150 mM NaCl, and 1% Triton X-100) supplemented with complete protease and phosphatase inhibitors (Roche, Mannheim, Germany). Lysates were subjected to two rounds of sonication for 10 s each, and insoluble material was precipitated by centrifugation at 13,000 xg for 10 min at 4 °C. Supernatants were precleared with protein A-Sepharose beads for 1 h. DMSO (vehicle) or different concentrations of the compounds (0.2, 0.6, 1, 5, 16 or 50 µM) were added to equal amounts of protein lysates for 30 min. Protein A-Sepharose beads and anti-IQGAP1 polyclonal antibodies were then added for 2 h at 4 °C. Anti-rabbit IgG antibodies were used as the immunoprecipitation control. Samples were washed five times with Buffer A, resolved by SDS-PAGE and transferred to polyvinylidene fluoride (PVDF) membranes (Millipore Corp). Membranes were probed with anti-IQGAP1 and anti-Cdc42 antibodies. After secondary antibody detection, Western blots were imaged using a LI-COR Odyssey infrared imaging system (LI-COR, USA). Western blot quantification and analysis was conducted using Image Studio™ Lite (LI-COR Biosciences).
# MCF7 cells = assay: IncuCyte proliferation assay, MCF7; assay type: cell-based, human; conditions: 72 h; for effect on proliferation: up to 50 µM
# Experimental: (§1) MDA-MB-231 and MCF7 cells were grown to confluence, detached using trypsin–EDTA cell dissociation buffer (Gibco 12604013) and counted. Cells were plated into 384-well, clear-bottom, black, tissue culture treated plates (Corning 3683) using an automatic dispenser (Thermo Multidrop Combi SMART) at densities of 2000 cells/10 µL/well for MDA-MB-231 cells and 4000 cells/10 µL/well for MCF7 cells in DMEM supplemented with 5% FBS. After 4 h incubation at 37 °C with 5% CO2, the growth medium was replaced with 10 µL medium containing compounds at 16-point 1:2 serial dilutions with the final highest concentration of 50 µM for each compound. All samples containing compounds were plated in triplicate. Cells in the first column of the plate were treated with 0.5% DMSO as control. The plates were placed into an Incucyte SX5 Live-cell imaging system (Sartorius) and phase images were taken at 6-h intervals for 72 h with 10X objective lens. The growth medium containing compounds or DMSO was replenished after 24 h. The images were analyzed, and the growth curves generated by the Incucyte software 2020A using the basic analyzer mode.
# MDA-MB-231 cells [2] = assay: IncuCyte proliferation assay, MDA-MB-231; assay type: cell-based, human; conditions: 72 h; for effect on proliferation: up to 50 µM
# Experimental: as §1
# MDA-MB-231 cells [3] = assay: Scratch wound migration assay; assay type: cell-based, human; conditions: for cell migration maximum efficiency / EC50: scratch wound, 72 h; for EC50: read-out: cell migration EC50
# Experimental: MDA-MB-231 cells were grown to confluence and plated into a 96-well clear plate (Sartorius 4379) at 30,000 cells/100 µL/well in DMEM supplemented with 5% FBS. Cells were incubated at 37 °C with 5% CO2 overnight. Even wounds were created using a 96-pin wound device (Sartorius 4493) following the manufacturer’s protocol. Medium was then aspirated, and the cells were washed once with PBS pH 7.4 before adding 100 µL/well of fresh growth medium. Then 100 µL/well of growth medium containing compounds at an 8-point 1:2 titration dispensed into the cell plate resulting a final highest concentration of 50 µM for each compound. 0.5% DMSO was used as control. All samples were plated in triplicate. The plate was placed into an Incucyte SX5 Live-cell imaging system and phase images were taken in 2-h intervals for 72 h using the scratch wound setting. Medium was aspirated and replaced with a fresh medium containing compounds or DMSO after 24 h. The images were analyzed, and the wound density curves generated by the Incucyte software 2020A using the scratch wound analysis option.
# [4] = Metabolic half-life in rat liver microsome lysates; assay type: in vitro ADME; conditions: minimum detectable half-life of 1 min; for half-life: read-out: T1/2 metabolic half-life
# [5] = Parallel artificial membrane permeation assay (PAMPA); assay type: in vitro ADME; conditions: for Papp: PAMPA, read-out: PAMPA passive permeability
# [6] = pION µSOL kinetic aqueous solubility; assay type: physicochemical; conditions: pION µSOL assay, pH 7.4; for solubility kinetic: aqueous medium
compound,measurement,setting,value
CCN1CCN(c2ncc3c(n2)CCN(Cc2cc(Br)cs2)C3)CC1 [NCGC00131308],EC50,GST-Cdc42-Q61L-His; read-out: EC50 in double-tagged Cdc42 counter-screen,4.47 µM
same,effect on Cdc42 binding to IQGAP1 in immunoprecipitation,[1],reduced the binding substantially
same,effect on proliferation,MCF7 cells,dose-dependent inhibitory effect
same,effect on proliferation,MDA-MB-231 cells [2],dose-dependent inhibitory effect
same,inhibition at 50 µM,"MDA-MB-231 cells [3]; Homo sapiens, 50 μM, the highest concentration used, read-out: inhibition of cell migration",57.7 ± 7.2%
same,half-life,[4],2.7 min
same,Papp,[5],77 ×10⁻⁶ cm/s
same,solubility kinetic,[6],37.1 µg/mL
CCN(CC)CCn1c2ccccc2c2nc3ccc([N+](=O)[O-])cc3cc21 [MLS000332963],activity in double-tagged Cdc42 counter-screen,GST-Cdc42-Q61L-His,inactive
same,effect on Cdc42 binding to IQGAP1 in immunoprecipitation,[1],reduced the binding substantially
same,EC50,MCF7 cells; confluency,6.54 µM
same,effect on proliferation,MCF7 cells,dose-dependent inhibitory effect
same,EC50,MDA-MB-231 cells [2]; confluency,3.01 µM
same,effect on proliferation,MDA-MB-231 cells [2],dose-dependent inhibitory effect
same,effect on cell shape,MDA-MB-231 cells [3]; 50 µM (Fig. S3),flatter and spread out more on the plastic
same,cell migration maximum efficiency,MDA-MB-231 cells [3],39%
same,EC50,MDA-MB-231 cells [3],2.7 µM
same,T1/2 metabolic half-life,[4],11.47 min
same,PAMPA passive permeability,[5],675 ×10⁻⁶ cm/s
same,Solubility (kinetic aqueous),[6],< 1 µg/mL
Cc1cccc(NC(=O)c2c(NC(=O)C(F)(F)F)sc3c2CCCCC3)c1 [NCGC00098561],activity in double-tagged Cdc42 counter-screen,GST-Cdc42-Q61L-His,not active
same,effect on Cdc42 binding to IQGAP1 in immunoprecipitation,[1],reduced the binding substantially
CCc1ccccc1Nc1ncnc2c1cnn2-c1ccc(Cl)cc1 [NCGC00138812],EC50,GST-Cdc42-Q61L-His,6.31 µM
same,effect on Cdc42 binding to IQGAP1 in immunoprecipitation,[1],reduced the binding substantially
same,effect on proliferation,MCF7 cells,dose-dependent inhibitory effect
same,effect on proliferation,MDA-MB-231 cells [2],dose-dependent inhibitory effect
same,EC50,MDA-MB-231 cells [3]; Homo sapiens,12.9 µM
same,cell migration maximum efficiency,MDA-MB-231 cells [3],20%
same,half-life,[4],7.12 min
same,Papp,[5],177 ×10⁻⁶ cm/s
same,solubility kinetic,[6],< 1 µg/mL
